Assay: Miscibility and mixing stability in formulations
Assay type: physicochemical

Measured: miscibility and mixing stability

CC(CC(=O)NCCOCCOCCNC(=O)CC(C)CC(C)(C)C)CC(C)(C)C (stereo not drawn) [Compound (K)]
excellent: O/W cream of Example 2, 3.5% | hair liquid composition of Example 4, 1.0% | night cream of Example 5, 10.0% | shampoo of Example 3, 2.0% | skin lotion of Example 1, 1.0% | sunscreen emulsion of Example 6, 3.0%
